Reference: patent publication US12559750B2, “Methods and compositions for treatment of polycystic kidney disease” (Regulus Therapeutics Inc., priority 2021, dated 2026)
e = 2'-O-(2-methoxyethyl) (MOE); k = constrained ethyl (cEt); d = 2'-deoxy (DNA); m = 2'-O-methyl; f = 2'-fluoro

Key:
miR-17 [1] = assay: miR-17 luciferase sensor assay in HeLa cells; assay type: cell-based; conditions: for EC50: HeLa cells, 18- to 24-hour transfection
Experimental: The in vitro potency of certain compounds was evaluated using a miR-17 luciferase sensor assay which uses a luciferase reporter vector for miR-17, with two fully complementary miR-17 binding sites in tandem in the 3′-UTR of the luciferase gene. HeLa cells were co-transfected with the luciferase reporter vector and an exogenous miR-17-expression vector that acted to repress the luciferase signal.

AMPA-R = assay: [3H]AMPA radioligand binding assay on rat brain synaptic membranes; conditions: for % Inhibition @ Concentration 100 uM: Table 8 (3′-terminal nucleobase/sugar variants); for % Inhibition @ Concentration 0.1 uM: Table 8, 0.1 uM; for % Inhibition @ Concentration 1 uM: Table 8, 1 uM; for % Inhibition @ Concentration 10 uM: Table 8, 10 uM;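 for all read-outs here: competition binding in which test compounds at rising concentrations displace [3H]AMPA from AMPA-R on rat brain synaptic membranes, with reduced bound radioligand as read-out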
Experimental: The activity of anti-miR-17 compounds was evaluated in a radioligand binding assay which measured the binding of the [^3H] AMPA ligand to the AMPA-R present on rat brain synaptic membranes, in the presence of increasing concentrations of anti-miR-17 compound, anti-miR-17 compounds with affinity for the AMPA-R will bind to and compete with the binding of the [^3H] AMPA ligand.
5.0 nM of the ligand [^3H] AMPA, 1.0 mM of the non-specific ligand L-Glutamic acid, and anti-miR compound at uM concentrations were incubated with synaptic membranes prepared from Wistar rat cerebral cortex for 90 minutes.
The compounds were tested in the radioligand binding assay described herein, to determine the ability of the anti-miR-17 compounds to and compete with the binding of the [3H] AMPA ligand.

miR-17 [2] = assay: microRNA polysome shift assay (miPSA) in kidney of wild type mice; assay type: in vivo, mouse; set-up: scale not given here; conditions: seven days later
Experimental: In vivo potency was evaluated using the microRNA polysome shift assay (miPSA). This assay was used to determine the extent to which compounds directly engage the miR-17 target in the kidney in normal and PKD mice. The miPSA relies on the principle that active miRNAs bind to their mRNA targets in translationally active high molecular weight (HMW) polysomes, whereas the inhibited miRNAs reside in the low MW (LMW) polysomes. Treatment with anti-miR results in a shift of the microRNA from HMW polysomes to LMW polysomes. Thus, the miPSA provides a direct measurement of microRNA target engagement by a complementary anti-miR (Androsavich et al., Nucleic Acids Research, 2015, 44: e13).
Wild type mice were administered a single dose of 0.3 mg/kg, 3 mg/kg, or 30 mg/kg. Kidney tissue was collected seven days later and subjected to the miPSA. The mean displacement score for each treatment is shown in Table 15 (PBS, n=17; RGLS4326 30 mg/kg, n=10; all other treatments, n=4-5). The tested oligonucleotides displaced miR-17 from translationally active polysome (as measured by miPSA) in normal mouse kidneys.

AMPA-R (GluA1/GluA4) = molecular target: T1, AMPA-R (GluA1/GluA4) (Homo sapiens, UniProt P42261+P48058); assay: Manual whole-cell patch clamp, ChanTest GluA1/GluA4 EZCells; assay type: cell-based
T1 construct: host or cells: ChanTest GluA1/GluA4 EZCells
Experimental: To evaluate functional antagonism of anti-miR-17 oligonucleotides towards the AMPA-R, certain oligonucleotides were tested using the manual whole-cell patch clamp technique, which records membrane currents as a measure of AMPA-R activity.
Manual whole-cell patch clamp studies were performed by Metrion Biosciences (Cambridge, UK). Whole-cell voltage clamp experiments were performed at room temperature (18-21° C.) using an EPC10 patch clamp amplifier using Patchmaster software (HEKA Elektronik). Glass patch pipettes were fabricated from borosilicate glass capillaries (Harvard Apparatus) to resistances between 1.4 and 2.5 MΩ. Membrane currents were recorded using the whole-cell patch clamp technique. ChanTest® GluA1/GluA4 EZCells were clamped at a holding potential of −80 mV and membrane currents elicited by 10 μM(S)-AMPA delivered using a VC38 perfusion system (ALA Scientific Instruments). The […] current amplitude values were measured with each application of 10 μM(S)-AMPA. The fractional change of current amplitude produced by each concentration of compound was calculated relative to the control current (pre-compound) and expressed as percentage change (% inhibition) for each cell. RGLS4326 was tested in a separate study from all other compounds in Table 6.

mice = conditions: in vivo
Experimental: Each compound was tested in a single dose at 2000 mg/kg, and at escalating doses (100, 450, and 2000 mg/kg).

miR-17 [3] = assay: miR-17 PD-Sig in mouse kidney cell lines; assay type: cell-based; conditions: mIMCD3, mouse, Normal
Experimental: The activity of certain compounds was evaluated using a mouse miR-17 Pharmacodynamic-Signature (miR-17 PD-Sig), which consists of the expression of 18 unique miR-17 target genes normalized by six reference housekeeping genes, to provide an unbiased and comprehensive assessment of miR-17 activity. The mouse miR-17 PD-Sig score was the calculated average of the 18 genes' individual log 2 fold changes (normalized by six housekeeping genes) compared to mock transfection (Lee et al., Nat. Commun., 2019, 10, 4148).
The PD-Sig for RGLS4326 in mIMCD3 cells (77.2, indicated by “*”) was not generated in this experiment; the value in Table 14 is that reported by Lee et al., Nat. Commun., 2019, 10, 4148. Blank cells in the table indicate that a compound was not tested in a particular cell line.

C57Bl/6J male mice = assay: ICV maximum tolerated dose study, Study 1; assay type: in vivo, mouse; conditions: for Mortality/total number of mice: 7-day
Experimental: Compounds (RG-NG-1017, RGLS4326, RG-NG-1001) were evaluated in a pilot maximum tolerated dose (MTD) study (discussed below). RG-NG-1017, RGLS4326 and RG-NG-1001 were initially evaluated at 4 dose-levels each. RG-NG-1017 was included for evaluation as a non-AMPA-R binding compound, as compared to RGLS4326 and RG-NG-1001, which bind AMPA-R. C57Bl/6J male mice (Jackson Laboratories), age 6-7 weeks, were used in this study. Mice were assigned randomly to treatment groups, and the study was blinded. Animals were allowed to acclimate for no less than 5 days and housed on a 12 hr light/dark cycle (lights on 7:00 AM). No more than 4 mice were house in each cage in a ventilated cage rack system. The diet consisted of standard rodent chow and water ad libitum.
The following parameters were used for this study: • 1. Route(s) of administration: intracerebroventricular (ICV) dosing of RG-NG-1017, RG-NG-1001, RGLS4326 • 2. Dose Volume(s): 4 μL • 3. Formulation(s): vehicle, Ca^2+ and Mg^2+ free dPBS • 4. Dose Frequency: Once • 5. Study duration: 8 Days • 6. Number of Groups: 3 • 7. Number of animals per group: (2-4 each group) • 8. Total number of animals: […]
For the ICV administration, mice were anesthetized and positioned for injections. The skin over the skull was incised, and a small hole was made in the skull above the target using a microdrill. The stereotactic coordinates were anteroposterior (AP), −0.4 mm; mediolateral (ML), +/−1.0-1.5 mm; dorsoventral (DV), −3.0 mm from the bregma for injection into both the right and left lateral cerebral ventricles (Hironaka et al, 2015). Animals were injected unilaterally with 4 μl into the right lateral cerebral ventricle. Compounds were injected over 1-2 min, and the needle was left in place for 0.5-1 min prior to withdrawal. The incision was closed with sutures, wound clips, or VetBond.
Following ICV treatment (Day 0), animals were monitored for 7 days in which daily health checks, body weight, and mortality was recorded. On Day 7, brain and kidney were collected and fixed (10% formalin) and stored pending histology.

T1 sequence (P42261 19-906): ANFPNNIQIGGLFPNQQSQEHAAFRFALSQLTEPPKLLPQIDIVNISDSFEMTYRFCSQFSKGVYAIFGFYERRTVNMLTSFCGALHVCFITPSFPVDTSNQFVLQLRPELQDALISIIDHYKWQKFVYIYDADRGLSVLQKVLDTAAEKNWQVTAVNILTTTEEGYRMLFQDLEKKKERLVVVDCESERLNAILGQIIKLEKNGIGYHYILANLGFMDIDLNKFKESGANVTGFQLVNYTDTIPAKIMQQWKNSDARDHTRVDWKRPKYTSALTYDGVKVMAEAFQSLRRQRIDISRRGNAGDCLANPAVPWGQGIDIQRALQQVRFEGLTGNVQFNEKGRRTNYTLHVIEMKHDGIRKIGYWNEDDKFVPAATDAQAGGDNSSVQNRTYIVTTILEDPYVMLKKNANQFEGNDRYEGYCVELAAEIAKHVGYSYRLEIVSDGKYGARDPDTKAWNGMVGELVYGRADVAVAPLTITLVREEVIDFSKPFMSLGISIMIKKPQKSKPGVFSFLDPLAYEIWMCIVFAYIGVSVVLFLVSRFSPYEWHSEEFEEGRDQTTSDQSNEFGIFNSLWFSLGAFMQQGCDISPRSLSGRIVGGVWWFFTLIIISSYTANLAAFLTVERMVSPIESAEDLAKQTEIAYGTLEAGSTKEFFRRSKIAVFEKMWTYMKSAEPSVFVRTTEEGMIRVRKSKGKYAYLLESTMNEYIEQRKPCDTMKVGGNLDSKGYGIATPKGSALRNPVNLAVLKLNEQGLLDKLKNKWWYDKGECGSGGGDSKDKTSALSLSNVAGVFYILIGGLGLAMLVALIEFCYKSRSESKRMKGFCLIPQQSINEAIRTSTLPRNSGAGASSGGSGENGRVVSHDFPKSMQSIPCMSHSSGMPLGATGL
T1 sequence (P48058 21-902): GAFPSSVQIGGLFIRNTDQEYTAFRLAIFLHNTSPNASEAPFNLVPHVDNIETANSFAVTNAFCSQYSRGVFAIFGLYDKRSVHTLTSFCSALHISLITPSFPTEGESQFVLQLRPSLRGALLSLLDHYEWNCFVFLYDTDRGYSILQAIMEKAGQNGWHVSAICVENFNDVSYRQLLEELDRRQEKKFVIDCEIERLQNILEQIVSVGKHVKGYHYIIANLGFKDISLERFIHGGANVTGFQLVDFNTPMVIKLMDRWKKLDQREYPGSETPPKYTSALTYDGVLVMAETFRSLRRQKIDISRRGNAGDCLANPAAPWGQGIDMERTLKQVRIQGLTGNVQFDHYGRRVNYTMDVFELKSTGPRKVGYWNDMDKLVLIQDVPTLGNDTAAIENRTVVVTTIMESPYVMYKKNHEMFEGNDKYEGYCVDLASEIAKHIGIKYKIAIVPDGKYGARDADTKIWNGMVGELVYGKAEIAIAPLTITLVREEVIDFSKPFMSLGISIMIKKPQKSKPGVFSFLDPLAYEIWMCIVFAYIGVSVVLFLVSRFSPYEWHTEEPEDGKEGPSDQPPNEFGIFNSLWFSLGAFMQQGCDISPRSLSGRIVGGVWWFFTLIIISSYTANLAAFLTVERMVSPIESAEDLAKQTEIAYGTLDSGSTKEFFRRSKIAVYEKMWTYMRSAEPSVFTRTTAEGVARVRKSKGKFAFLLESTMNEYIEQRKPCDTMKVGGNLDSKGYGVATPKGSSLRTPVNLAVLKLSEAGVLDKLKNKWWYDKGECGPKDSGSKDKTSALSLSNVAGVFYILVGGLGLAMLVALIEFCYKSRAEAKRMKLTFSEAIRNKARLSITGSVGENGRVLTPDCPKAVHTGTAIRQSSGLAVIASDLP

| Sequence | Log2FC (37.5 nM) (miR-17 [1]) | EC50 (miR-17 [1]) [nM] | IC50 (AMPA-R; Experiment #2) [nM] | % Inhibition @ 0.1 uM (AMPA-R; Experiment #2, 0.1 uM) [%] | % Inhibition @ 1 uM (AMPA-R; Experiment #2, 1 uM) [%] | % Inhibition @ 10 uM (AMPA-R; Experiment #2, 10 uM) [%] | % Inhibition @ 100 uM (AMPA-R; Experiment #2, 100 uM) [%] | % Inhibition on membrane currents evoked with 10 uM (s)-AMPA (Mean ± SD) (AMPA-R (GluA1/GluA4); 0.3 uM compound) [%] | % Inhibition on membrane currents evoked with 10 uM (s)-AMPA (Mean ± SD) (AMPA-R (GluA1/GluA4); 3 uM compound) [%] | CNS toxicity in high-dose mouse toxicity studies (mice) | IC50 (AMPA-R; Table 8) [nM] | % Inhibition @ Concentration 100 uM (AMPA-R) [%] | % Inhibition @ Concentration 0.1 uM (AMPA-R) [%] | % Inhibition @ Concentration 1 uM (AMPA-R) [%] | % Inhibition @ Concentration 10 uM (AMPA-R) [%] | also measured |
| --- | --- | --- | --- | --- | --- | --- | --- | --- | --- | --- | --- | --- | --- | --- | --- | --- |
| ASGSCMAFCFUFUMUSCS [RG-NG-1016] | 2.32 | 20.3 | > 100000 | 4.7 | 10.4 | 12.3 | 5.9 | 16.0 ± 6.2 | 27.1 ± 9.8 | no CNS-toxicity were observed |  |  |  |  |  | miPSA Displacement Score, Mean (miR-17 [2]; single dose 3 mg/kg): 2.263; miPSA Displacement Score, Mean (miR-17 [2]; single dose 30 mg/kg): 1.134; miPSA Displacement Score, Mean (miR-17 [2]; single dose 0.3 m/kg): 1.892; functional antagonism towards AMPA-R relative to RGLS4326 (AMPA-R (GluA1/GluA4); in words): reduced functional antagonism towards AMPA-R; CNS-related findings noted (mice; mouse, sc, 2000 mg/kg): No; EC50 (miR-17 [3]): 146 nM |
| ASGSCSASCSUSUSUSGS [RG-NG-1001] |  |  | 190 | 42.2 | 68.3 | 90.1 | 93.5 | 80.5 ± 6.3 | 88.8 ± 4.5 | ataxia, lethargy | 150 | 102.9 | 41.9 | 81.3 | 99.3 | IC50 (AMPA-R; Experiment #1): 170 nM; % Inhibition @ 0.1 uM (AMPA-R; Experiment #1, 0.1 uM): 41.1%; % Inhibition @ 1 uM (AMPA-R; Experiment #1, 1 uM): 76.2%; % Inhibition @ 10 uM (AMPA-R; Experiment #1, 10 uM): 89.1%; % Inhibition @ 100 uM (AMPA-R; Experiment #1, 100 uM): 91.3%; IC50 (AMPA-R; Experiment #3): 100 nM; % Inhibition @ 0.1 uM (AMPA-R; Experiment #3, 0.1 uM): 59.4%; % Inhibition @ 1 uM (AMPA-R; Experiment #3, 1 uM): 84.8%; % Inhibition @ 10 uM (AMPA-R; Experiment #3, 10 uM): 94.6%; % Inhibition @ 100 uM (AMPA-R; Experiment #3, 100 uM): 96.6%; Mortality/total number of mice (C57Bl/6J male mice; single ICV 2.5 μg): 1/3; Mortality/total number of mice (C57Bl/6J male mice; single ICV 5 μg): 4/4; Mortality/total number of mice (C57Bl/6J male mice; single ICV 10 μg): 3/4; Mortality/total number of mice (C57Bl/6J male mice; single ICV 25 μg): 3/3; Mortality/total number of mice (C57Bl/6J male mice; single ICV 50 μg): 3/3; Mortality/total number of mice (C57Bl/6J male mice; single ICV 100 μg): 2/2; Mortality/total number of mice (C57Bl/6J male mice; single ICV 300 μg): 2/2; Mortality/total number of mice (C57Bl/6J male mice; single ICV 600 μg): 2/2; MTD (C57Bl/6J male mice; single ICV, C57Bl/6J mice, predicted from the study): under 2.5 μg |
| GSCEAECETEGSTEADASGSCMAFCFUFUMUSGS (GCACTGTAAGCACUUUG; sugars from the 5' end keeeekedkkmfffmkk, backbone and methylation of C not given here) [RG-NG-1032] | 3.85 | < 1 |  |  |  |  |  |  |  |  | 1170 | 92 | 24.3 | 43.8 | 78.3 |  |
